Experimental data taken from patent US4462991A, “Method of increasing oral absorption of polar bioactive agents” (INTERx Research Corp., priority 1982, dated 1984).

Experiment: Percent bioavailability after intraduodenal injection in anesthetized rats, (AUC)0-90 min relative to i.v.
Settings: male, Sprague-Dawley, rat, in vivo, other: intraduodenal injection, 2.5 mg per animal, pH 5, Control (no adjuvant), intraduodenal injection 0.25 ml, drug 10 mg/ml, pH 5, ionic strength 0.3, AUC 0-90 min vs i.v., read-out: Percent Bioavailability (% BA)
Procedure: The following tests were run showing Percent Bioavailability (% BA)
The above tests were done according to the following protocol:
Animals: Male Sprague-Dawley rats (200-250 g)
Anesthesia: Ethyl carbamate by i.m. injection
Blood 0.6 ml from external jugular vein at
(AUC)o^90 calculated from summation
For the oral test an intraduodenal injection 1.0 cm distal to the pylorus was done . The volume of the injection was 0.25 ml at 0.3 ionic strength (adjusted with sodium chloride) and a pH of 5.
The drug was administered at 10 mg/ml unless otherwise noted and the adjuvant at 20 mg/ml unless otherwise noted.
The (AUC)i.v. was determined for each drug, based on the mean value from 3-6 animals.

**Q.** For CC(C)[C@@H]1NC(=O)[C@H](CCCCN)NC(=O)[C@@H](Cc2c[nH]c3ccccc23)NC(=O)[C@H](Cc2ccc(O)cc2)NC(=O)[C@H](C)N(C)C(=O)[C@H](Cc2ccccc2)NC1=O [Cyclo-(N-Me-Ala-Tyr-D-Trp-Lys-Val-Phe)], which bioavailability is on record?
**A.** 1%
